Results taken from ChEMBL document CHEMBL5385913, “First-in-Class Dual EZH2-HSP90 Inhibitor Eliciting Striking Antiglioblastoma Activity In Vitro and In Vivo” (J Med Chem, 2024).
The source made the active and inactive calls. The rule behind the calls is not given here.

Columns and labels:
GBM [1] = test: Induction of mitochondrial ROS production in TMZ-resistant patient-derived human GBM cells by MitoSOX staining based analysis; type: functional, cell-based
GBM [2] = test: Upregulation of apoptosis-related gene expression in TMZ-resistant patient-derived human GBM cells; type: functional, cell-based
[3] = Downregulation of HELLS level in TMZ-resistant patient-derived human GBM cells assessed as fold change at 2 uM by GlioVis analysis (reference value: 4.19); type: functional
GBM [4] = test: Downregulation of CDK1 level in TMZ-resistant patient-derived human GBM cells upto 5 uM incubated for 48 to 72 hrs by Western blot analysis; type: functional, cell-based; settings: time 48-72 hrs
GBM [5] = test: Upregulation of HSPH gene expression in TMZ-resistant patient-derived human GBM cells by KEGG analysis; type: functional, cell-based
GBM [6] = test: Downregulation of MCM7 gene expression in TMZ-resistant patient-derived human GBM cells by KEGG analysis; type: functional, cell-based
[7] = Effect on processing DNA double-strand break in TMZ-resistant patient-derived human GBM cells assessed as fold decrease in RBBP8 gene expression at 2 uM (reference value: 4.92); type: functional
GBM [8] = test: Upregulation of SERPINE1 gene expression in TMZ-resistant patient-derived human GBM cells by KEGG analysis; type: functional, cell-based
GBM [9] = test: Downregulation of M phase-related gene expression in TMZ-resistant patient-derived human GBM cells; type: functional, cell-based
GBM [10] = test: Downregulation of HNRNPA3 gene expression in TMZ-resistant patient-derived human GBM cells by KEGG analysis; type: functional, cell-based
[11] = Effect on processing DNA double-strand break in TMZ-resistant patient-derived human GBM cells assessed as fold decrease in DNA2 gene expression at 2 uM (reference value: 2.75); type: functional
GBM [12] = test: Effect on homologous recombination in TMZ-resistant patient-derived human GBM cells assessed as fold decrease in RMI1 gene expression at 2 uM (reference value: 3.44); type: functional
[13] = Downregulation of HJURP level in TMZ-resistant patient-derived human GBM cells assessed as fold change at 2 uM by GlioVis analysis (reference value: 4.74); type: functional
[14] = Effect on processing DNA double-strand break in TMZ-resistant patient-derived human GBM cells assessed as fold decrease in BLM gene expression at 2 uM (reference value: 3.55); type: functional
GBM [15] = test: Effect on homologous recombination in TMZ-resistant patient-derived human GBM cells assessed as fold decrease in RAD21 gene expression at 2 uM (reference value: 5.77); type: functional
GBM [16] = test: Downregulation of CENPF level in TMZ-resistant patient-derived human GBM cells upto 5 uM incubated for 48 to 72 hrs by Western blot analysis; type: functional, cell-based; settings: time 48-72 hrs
[17] = Downregulation of CENPW level in TMZ-resistant patient-derived human GBM cells assessed as fold change at 2 uM by GlioVis analysis (reference value: 2.83); type: functional
[18] = Downregulation of CENPP level in TMZ-resistant patient-derived human GBM cells assessed as fold change at 2 uM by GlioVis analysis (reference value: 2.18); type: functional
GBM [19] = test: Downregulation of RPL26 gene expression in TMZ-resistant patient-derived human GBM cells by KEGG analysis; type: functional, cell-based
GBM [20] = test: Upregulation of ACTB gene expression in TMZ-resistant patient-derived human GBM cells by KEGG analysis; type: functional, cell-based
GBM [21] = test: Upregulation of HSP90AA1 gene expression in TMZ-resistant patient-derived human GBM cells by KEGG analysis; type: functional, cell-based
[22] = target: Histone-lysine N-methyltransferase EZH2 (Homo sapiens) (UniProt Q15910); test: Inhibition of EZH2 in TMZ-resistant patient-derived human GBM cells upto 10 uM measured after 48 hrs by Western blot analysis; type: cell-based
GBM [23] = test: Downregulation of CENPI level in TMZ-resistant patient-derived human GBM cells upto 5 uM incubated for 48 to 72 hrs by Western blot analysis; type: functional, cell-based; settings: time 48-72 hrs
GBM [24] = test: Downregulation of MCM3 gene expression in TMZ-resistant patient-derived human GBM cells by KEGG analysis; type: functional, cell-based
GBM [25] = test: Effect on homologous recombination in TMZ-resistant patient-derived human GBM cells assessed as fold decrease in RAD54B gene expression at 2 uM (reference value: 1.74); type: functional
[26] = Downregulation of OIP5 level in TMZ-resistant patient-derived human GBM cells assessed as fold change at 2 uM by GlioVis analysis (reference value: 2.31); type: functional
GBM [27] = test: Effect on homologous recombination in TMZ-resistant patient-derived human GBM cells assessed as fold decrease in EME1 gene expression at 2 uM (reference value: 2.94); type: functional
GBM [28] = test: Suppression of cell division in TMZ-resistant patient-derived human GBM cells by GSEA analysis; type: functional, cell-based
[29] = Downregulation of CENPF level in TMZ-resistant patient-derived human GBM cells assessed as fold change at 2 uM by GlioVis analysis (reference value: 6.6); type: functional
GBM [30] = test: Upregulation of ARF3 gene expression in TMZ-resistant patient-derived human GBM cells by KEGG analysis; type: functional, cell-based
[31] = target: Histone-lysine N-methyltransferase EZH2 (Homo sapiens) (UniProt Q15910); test: Inhibition of EZH2 in patient-derived human GBM cells upto 10 uM measured after 48 hrs by Western blot analysis; type: cell-based
GBM [32] = test: Upregulation of HSPA1A gene expression in TMZ-resistant patient-derived human GBM cells by KEGG analysis; type: functional, cell-based
GBM [33] = test: Downregulation of SRSF7 gene expression in TMZ-resistant patient-derived human GBM cells by KEGG analysis; type: functional, cell-based
GBM [34] = test: Downregulation of RPS10 gene expression in TMZ-resistant patient-derived human GBM cells by KEGG analysis; type: functional, cell-based
GBM [35] = test: Downregulation of kinetochore-related gene expression in TMZ-resistant patient-derived human GBM cells; type: functional, cell-based
GBM [36] = test: Induction of ROS production in TMZ-resistant patient-derived human GBM cells assessed as decrease in GPX1 level upto 10 uM measured after 48 hrs by Western blot analysis; type: functional, cell-based
[37] = target: Histone-lysine N-methyltransferase EZH2 (Homo sapiens) (UniProt Q15910); test: Inhibition of EZH2-mediated H3K27 trimethylation in TMZ-resistant patient-derived human GBM cells upto 10 uM measured after 48 hrs by Western blot analysis; type: cell-based
GBM [38] = test: Downregulation of RPS6 gene expression in TMZ-resistant patient-derived human GBM cells by KEGG analysis; type: functional, cell-based
GBM [39] = test: Induction of ROS production in patient-derived human GBM cells measured after 48 hrs by DHR staining based flow cytometry; type: functional, cell-based

Histone-lysine N-methyltransferase EZH2 (Homo sapiens), sequence (Q15910 whole entry, looked up): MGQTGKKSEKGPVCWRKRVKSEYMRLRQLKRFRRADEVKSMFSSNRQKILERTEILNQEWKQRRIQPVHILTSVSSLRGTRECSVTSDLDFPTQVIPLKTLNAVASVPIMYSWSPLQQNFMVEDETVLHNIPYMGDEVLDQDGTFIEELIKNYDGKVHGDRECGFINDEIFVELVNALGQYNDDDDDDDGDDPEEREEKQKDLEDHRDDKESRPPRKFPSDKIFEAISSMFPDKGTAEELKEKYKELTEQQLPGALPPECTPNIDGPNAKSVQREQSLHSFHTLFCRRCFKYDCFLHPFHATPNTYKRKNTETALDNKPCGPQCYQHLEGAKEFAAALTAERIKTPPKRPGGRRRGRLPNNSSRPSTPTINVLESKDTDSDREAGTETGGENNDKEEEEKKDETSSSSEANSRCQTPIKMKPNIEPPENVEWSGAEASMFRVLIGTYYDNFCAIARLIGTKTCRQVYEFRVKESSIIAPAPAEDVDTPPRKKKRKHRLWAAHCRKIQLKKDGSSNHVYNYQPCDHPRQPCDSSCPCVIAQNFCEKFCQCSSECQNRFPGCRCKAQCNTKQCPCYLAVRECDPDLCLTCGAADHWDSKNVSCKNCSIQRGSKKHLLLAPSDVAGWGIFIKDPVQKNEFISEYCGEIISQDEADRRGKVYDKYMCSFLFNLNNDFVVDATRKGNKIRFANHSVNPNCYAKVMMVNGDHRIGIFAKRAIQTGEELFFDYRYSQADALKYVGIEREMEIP

CCN(c1cc(-c2cccc(N(C)C(=O)c3cc(C(C)C)c(O)cc3O)c2)cc(C(=O)NCc2c(C)cc(C)[nH]c2=O)c1C)C1CCOCC1
Activity (GBM [1]): Active
Activity (GBM [2]): Active
fold change (FC) [3]: 2.37
Activity (GBM [4]): Active
Activity (GBM [5]): Active
Activity (GBM [6]): Active
fold change (FC) [7]: 3.95
Activity (GBM [8]): Active
Activity (GBM [9]): Active
Activity (GBM [10]): Active
fold change (FC) [11]: 1.33
fold change (FC) (GBM [12]): 2.33
fold change (FC) [13]: 1.38
fold change (FC) [14]: 0.72
fold change (FC) (GBM [15]): 4.69
Activity (GBM [16]): Active
fold change (FC) [17]: 0.72
fold change (FC) [18]: 1.27
Activity (GBM [19]): Active
Activity (GBM [20]): Active
Activity (GBM [21]): Active
inhibition [22]: Active
Activity (GBM [23]): Active
Activity (GBM [24]): Active
fold change (FC) (GBM [25]): 0.83
fold change (FC) [26]: 0.66
fold change (FC) (GBM [27]): 0.75
Activity (GBM [28]): Active
fold change (FC) [29]: 3.46
Activity (GBM [30]): Active
inhibition [31]: Active
Activity (GBM [32]): Active
Activity (GBM [33]): Active
Activity (GBM [34]): Active
Activity (GBM [35]): Active
Activity (GBM [36]): Active
inhibition [37]: Active
Activity (GBM [38]): Active
Activity (GBM [39]): Active
